# Source: paper PMC8838936, “Simultaneous Determination of Seven Lipophilic and Hydrophilic Components in Salvia miltiorrhiza Bunge by LC-MS/MS Method and Its Application to a Transport Study in a Blood-Brain-Barrier Cell Model” (Molecules, 2022)
# Experiments:
# [1] = Stability of analytes in HBSS (autosampler 24 h; −80 °C 15 days); type: physicochemical; conditions: HBSS system
# Description: Stability was evaluated by analyzing LQC, MQC, and HQC concentrations at autosampler for 24 h and −80 °C for 15 days with five replicates. Stability was expressed in terms of accuracy (RE) and coefficient of variation (RSD). The samples were considered stable if accuracy (RE) was within ±15% of the nominal values and precision (RSD) was less than 15%.
# [2] = Transport study in a BBB cell model (bidirectional transwell permeability); type: in vitro ADME, Human; conditions: human; for efflux ratio at 120 min: ER = Papp (BL-AP)/Papp (AP-BL), BBB cell model; for Papp B→A at 120 min: hBMEC monolayer on transwell, basolateral-to-apical, within 120 min, 37 °C, Mean ± SD, n = 3
# Description: (§1) The hBMECs cells were seeded at a density of 3 × 10^5 cells per well on the transwell plates in EMC. Apical side volumes were 0.5 mL, and the medium was changed every day. Basal side volumes were 1.5 mL, and the medium was changed every other day. The medium was changed until confluent monolayers were formed. […] TEER provides information on ion current resistance across cell monolayers related to the integrity of tight junctions between cells. When the TEER reached the maximum value, the cell monolayer was used for the transport assay.
# (§2) The permeability experiments were carried out bi-directionally, with working solutions containing one test component, TSI (1.25 μg/mL), DTSI (0.15 μg/mL), CTS (1.25 μg/mL), CFA (10 μg/mL), PAL (10 μg/mL), and PCTA (20 μg/mL). Aliquots of the […] compartment were collected after several time points (15, 30, 60, and 120 min) and replaced with drug-free assay buffer. The transwell plates were incubated on an orbital shaker at 37 °C for the entire experimental time. All experiments were performed in triplicate, and withdrawn samples were stored in −80 °C fridge before LC-MS/MS analysis.
# (§3) For the BBB cell model, the apparent permeability coefficient, Papp in apical-to-basolateral (AP-BL) or basolateral-to-apical (BL-AP) direction, and efflux rate of each component were subsequently calculated according to the following equation: Papp = {dQ/dt} × {1/ (A × C0)},(1) where Q is the accumulation quantity of the compound in the receiver side (μg), dQ /dt is the rate of appearance of the compound in the receiver side (μg /s), C0 is the initial concentration in the donor side […], and A is the surface area of the membrane insert (cm^2). Furthermore, efflux ratios (ER) were calculated according to the following equation: ER = Papp (BL-AP)/Papp (AP-BL),(2) where Papp (BL-AP) and Papp (AP-BL) are the Papp values in the direction basolateral-to-apical and apical-to-basolateral, respectively.
# [3] = test system: hBMEC cell monolayer (BBB cell model); test: as above; type: in vitro ADME, Human; conditions: BBB cell model, within 120 min
# Description: as §1, §2, §3
# [4] = test system: BBB; set-up: method as in PMID 26683637; conditions: cited from earlier work
# [5] = test system: endothelial cell monolayers; set-up: method as in PMID 17504224; conditions: facilitated efflux from the abluminal side to luminal side; cited from earlier work
Stability in HBSS (in words) [1],SMILES,efflux ratio at 120 min [2],Papp B→A at 120 min [2],Absorption in the BBB model (class by Papp (AP-BL)) [3],Effect on disruption of the BBB [4],Transport of CTS in endothelial cell monolayers [5]
very unstable,CCC(C)(C)C(=O)O[C@H]1C[C@@H](C)C=C2C=C[C@H](C)[C@H](CC[C@@H]3C[C@@H](O)CC(=O)O3)[C@H]21 [simvastatin],,,,,
,"Cc1coc2c1C(=O)C(=O)c1c-2ccc2c1CCCC2(C)C [TS IIA, tanshinone IIA]",0.673,0.0253 ×10⁻⁶ cm/s,difficult to be absorbed,suppress disruption of the BBB,
,"C[C@H]1COC2=C1C(=O)C(=O)c1c2ccc2c1CCCC2(C)C [CTS, cryptotanshinone]",1.03,5.12 ×10⁻⁶ cm/s,moderate absorption,,polarized transport
,"O=C(O)/C=C/c1ccc(O)c(O)c1 [CFA, caffeic acid]",1.05,22.5 ×10⁻⁶ cm/s,easily absorbed,,
,"Cc1cccc2c3c(ccc12)C1=C(C(=O)C3=O)[C@@H](C)CO1 [DTS I, dihydrotanshinone I]",0.779,3.62 ×10⁻⁶ cm/s,moderate absorption,,
,"O=C(O)c1ccc(O)c(O)c1 [PCTA, protocatechuic acid]",0.946,41.3 ×10⁻⁶ cm/s,easily absorbed,,
,"O=Cc1ccc(O)c(O)c1 [PAL, protocatechuic aldehyde]",0.805,12.2 ×10⁻⁶ cm/s,easily absorbed,,
